The test system of this series is CCRIS mutagenicity, Ames/micronucleus/aberration tests. Nature of the series: CCRIS mutagenicity studies.
Setting [1] is: Test System: AMES SALMONELLA TYPHIMURIUM, Strain/Indicator: TA100, Metabolic Activation: NONE, Method: PREINCUBATION
Where [2] appears, read: Test System: AMES SALMONELLA TYPHIMURIUM, Strain/Indicator: TA100, Metabolic Activation: NONE, Method: STANDARD PLATE.
The mark [3] stands for this setting: Test System: AMES SALMONELLA TYPHIMURIUM, Strain/Indicator: TA1535, Metabolic Activation: NONE, Method: PREINCUBATION
The mark [4] stands for this setting: Test System: AMES SALMONELLA TYPHIMURIUM, Strain/Indicator: TA98, Metabolic Activation: NONE, Method: STANDARD PLATE.
Setting [5] is: Test System: AMES SALMONELLA TYPHIMURIUM, Strain/Indicator: TA98, Metabolic Activation: RAT, LIVER, S-9, PHENOBARBITAL, Method: STANDARD PLATE.
Where [6] appears, read: Test System: AMES SALMONELLA TYPHIMURIUM, Strain/Indicator: TA100, Metabolic Activation: RAT, LIVER, S-9, AROCLOR 1254, Method: STANDARD PLATE.
The mark [7] stands for this setting: Test System: AMES SALMONELLA TYPHIMURIUM, Strain/Indicator: TA98, Metabolic Activation: NONE, Method: PREINCUBATION

Molecules are shown by their SMILES. The source made the active and inactive calls. How the calls were made is not given here.

As for `CCCCN(N=O)C(CCC)OC(C)=O` (configuration not stated), the mutagenic call (Test System: UDS RAT UROTHELIAL CELLS, Strain/Indicator: THY INCORP, Metabolic Activation: NONE) was “active; positive”.

`C=C(C)C(=O)OCC(OC1=CCCC1)OC1=CCCC1`: for the setting “Test System: MOUSE LYMPHOMA, Strain/Indicator: L5178Y (TK+/TK-), Metabolic Activation: NONE, Method: SUSPENSION/PLATE”, the mutagenic call is “inactive; negative”.

For `COc1ccc(CCC2CO2)cc1` (configuration not stated), the mutagenic call reads like this: under setting [1], “active; positive”; under setting [2], “active; positive”; under setting [3], “active; positive”; (Test System: AMES SALMONELLA TYPHIMURIUM, Strain/Indicator: TA1535, Metabolic Activation: NONE, Method: STANDARD PLATE) “active; positive”.

For the compound `CC(O)c1cc2ccc3cccc4ccc(c1)c2c34` (configuration not stated), the mutagenic call (Test System: AMES SALMONELLA TYPHIMURIUM, Strain/Indicator: TA98, Metabolic Activation: HUMAN, LIVER, CYTOSOL, PAPS, Method: PREINCUBATION) was “active; positive”.

In the case of `Nc1c(N=Nc2ccc([N+](=O)[O-])cc2)c(S(=O)(=O)O)cc2cc(S(=O)(=O)O)c(N=Nc3ccccc3)c(O)c12`, the mutagenic call is, setting by setting: under setting [4], “active; positive”; under setting [5], “active; positive”; under setting [2], “inactive; negative”; (Test System: AMES SALMONELLA TYPHIMURIUM, Strain/Indicator: TA100, Metabolic Activation: RAT, LIVER, S-9, PHENOBARBITAL, Method: STANDARD PLATE) “active; positive”.

For `COc1cc(N=Nc2ccc(N(CCO)CCO)cc2)ccc1N=Nc1c(S(=O)(=O)O)cc2ccc(N)cc2c1O`, the mutagenic call runs as follows: under setting [4], “inactive; negative”; (Test System: AMES SALMONELLA TYPHIMURIUM, Strain/Indicator: TA98, Metabolic Activation: RAT, LIVER, S-9, AROCLOR 1254, Method: STANDARD PLATE) “active; positive”; under setting [2], “inactive; negative”; under setting [6], “inactive; negative”; (Test System: AMES SALMONELLA TYPHIMURIUM, Strain/Indicator: TA1538, Metabolic Activation: NONE, Method: STANDARD PLATE) “inactive; negative”; (Test System: AMES SALMONELLA TYPHIMURIUM, Strain/Indicator: TA1538, Metabolic Activation: RAT, LIVER, S-9, AROCLOR 1254, Method: STANDARD PLATE) “active; positive”.

Consider `Nc1ccc(Cc2cc(O)c(N)c(Cl)c2)cc1Cl`, for which the mutagenic call is, setting by setting: under setting [7], “inactive; negative”; under setting [1], “inactive; negative”.

In the case of `ClCc1cc2c3ccccc3cc3ccc4cccc1c4c32`, the mutagenic call is “active; positive” under setting [4] and “active; positive” under setting [2].

As for `Cc1ccc2n[nH]nc2c1`, the mutagenic call was “inactive; negative” (Test System: AMES SALMONELLA TYPHIMURIUM, Strain/Indicator: TA97, Metabolic Activation: NONE); “inactive; negative” (Test System: AMES SALMONELLA TYPHIMURIUM, Strain/Indicator: TA97, Metabolic Activation: RAT, LIVER, S-9, AROCLOR 1254); “inactive; negative” (Test System: AMES SALMONELLA TYPHIMURIUM, Strain/Indicator: TA98, Metabolic Activation: NONE); “inactive; negative” (Test System: AMES SALMONELLA TYPHIMURIUM, Strain/Indicator: TA98, Metabolic Activation: RAT, LIVER, S-9, AROCLOR 1254); “inactive; negative” (Test System: AMES SALMONELLA TYPHIMURIUM, Strain/Indicator: TA100, Metabolic Activation: NONE); “inactive; negative” (Test System: AMES SALMONELLA TYPHIMURIUM, Strain/Indicator: TA100, Metabolic Activation: RAT, LIVER, S-9, AROCLOR 1254). The mutagenic call was “inactive; negative” (Test System: AMES SALMONELLA TYPHIMURIUM, Strain/Indicator: TA102, Metabolic Activation: NONE) and “inactive; negative” (Test System: AMES SALMONELLA TYPHIMURIUM, Strain/Indicator: TA102, Metabolic Activation: RAT, LIVER, S-9, AROCLOR 1254).

Regarding `COc1cccc(NC(=O)c2csc([N+](=O)[O-])c2)c1`, the mutagenic call by setting is: under setting [4], “active; positive”; under setting [2], “active; positive”.

With `CN1C(=O)CC[C@H]1c1cccnc1`, the mutagenic call was “inactive; negative” under setting [7]; “inactive; negative” (Test System: AMES SALMONELLA TYPHIMURIUM, Strain/Indicator: TA98, Metabolic Activation: RAT, LIVER, S-9, AROCLOR 1254 (5%), Method: PREINCUBATION); “inactive; negative” under setting [1]; “inactive; negative” (Test System: AMES SALMONELLA TYPHIMURIUM, Strain/Indicator: TA100, Metabolic Activation: RAT, LIVER, S-9, AROCLOR 1254 (5%), Method: PREINCUBATION); “inactive; negative” under setting [3]; “inactive; negative” (Test System: AMES SALMONELLA TYPHIMURIUM, Strain/Indicator: TA1535, Metabolic Activation: RAT, LIVER, S-9, AROCLOR 1254 (5%), Method: PREINCUBATION). Further, the mutagenic call is “inactive; negative” (Test System: AMES SALMONELLA TYPHIMURIUM, Strain/Indicator: TA1537, Metabolic Activation: NONE, Method: PREINCUBATION); “inactive; negative” (Test System: AMES SALMONELLA TYPHIMURIUM, Strain/Indicator: TA1537, Metabolic Activation: RAT, LIVER, S-9, AROCLOR 1254 (5%), Method: PREINCUBATION); “inactive; negative” (Test System: AMES SALMONELLA TYPHIMURIUM, Strain/Indicator: TA1538, Metabolic Activation: NONE, Method: PREINCUBATION); “inactive; negative” (Test System: AMES SALMONELLA TYPHIMURIUM, Strain/Indicator: TA1538, Metabolic Activation: RAT, LIVER, S-9, AROCLOR 1254 (5%), Method: PREINCUBATION).

Turning to `COc1c(OC)c2occc2c2oc(=O)ccc12`, the mutagenic call reads like this: under setting [4], “inactive; negative”; under setting [5], “inactive; negative”.

Take `CCC(C(N)=O)(C(N)=O)c1ccccc1`: the mutagenic call reads like this: (Test System: AMES SALMONELLA TYPHIMURIUM, Strain/Indicator: TA97, Metabolic Activation: HAMSTER, LIVER, S-9, AROCLOR 1254 (10 OR 30%), Method: PREINCUBATION) “inactive; negative”; (Test System: AMES SALMONELLA TYPHIMURIUM, Strain/Indicator: TA97, Metabolic Activation: NONE, Method: PREINCUBATION) “inactive; negative”; (Test System: AMES SALMONELLA TYPHIMURIUM, Strain/Indicator: TA97, Metabolic Activation: RAT, LIVER, S-9, AROCLOR 1254 (10 OR 30%), Method: PREINCUBATION) “inactive; negative”; (Test System: AMES SALMONELLA TYPHIMURIUM, Strain/Indicator: TA98, Metabolic Activation: HAMSTER, LIVER, S-9, AROCLOR 1254 (10 OR 30%), Method: PREINCUBATION) “inactive; negative”; under setting [7], “inactive; negative”; (Test System: AMES SALMONELLA TYPHIMURIUM, Strain/Indicator: TA98, Metabolic Activation: RAT, LIVER, S-9, AROCLOR 1254 (10 OR 30%), Method: PREINCUBATION) “inactive; negative”. Besides, the mutagenic call is “inactive; negative” (Test System: AMES SALMONELLA TYPHIMURIUM, Strain/Indicator: TA100, Metabolic Activation: HAMSTER, LIVER, S-9, AROCLOR 1254 (10 OR 30%), Method: PREINCUBATION); “inactive; negative” under setting [1]; “inactive; negative” (Test System: AMES SALMONELLA TYPHIMURIUM, Strain/Indicator: TA100, Metabolic Activation: RAT, LIVER, S-9, AROCLOR 1254 (10 OR 30%), Method: PREINCUBATION); “inactive; negative” (Test System: AMES SALMONELLA TYPHIMURIUM, Strain/Indicator: TA1535, Metabolic Activation: HAMSTER, LIVER, S-9, AROCLOR 1254 (10 OR 30%), Method: PREINCUBATION); “inactive; negative” under setting [3]; “inactive; negative” (Test System: AMES SALMONELLA TYPHIMURIUM, Strain/Indicator: TA1535, Metabolic Activation: RAT, LIVER, S-9, AROCLOR 1254 (10 OR 30%), Method: PREINCUBATION).

Regarding `Cc1ccc2nc3c(ccc4ccccc43)c(CO)c2c1`, the mutagenic call under setting [6] is “active; positive”.

On to `CC(=O)N(O)c1ccc(/C=C\c2ccccc2)cc1`, for which the mutagenic call (Test System: UDS HUMAN FIBROBLASTS, Strain/Indicator: THY INCORP (NON-S-PHASE), Metabolic Activation: NONE, Method: AUTORADIOGRAPHY) is “active; positive”.

These data come from PubChem BioAssay AID1259407 (Chemical Carcinogenesis Research Information System (CCRIS), 2018).
